Measured values reported in PubChem BioAssay (NCI).
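Here, GI50 denotes the concentration required for 50% inhibition of growth. TGI: total growth inhibition.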

Experiments:
Assay in all cases: NCI anticancer screen, dose series, 384-well format; in the data active = GI50 below about 0.43 µM; inactive = the rest
[1] = system: 786-0 renal
[2] = system: A498 renal
[3] = system: A549 NSCLC
[4] = system: ACHN renal
[5] = system: BT-549 breast
[6] = system: CAKI-1 renal
[7] = system: CCRF-CEM leukemia
[8] = system: COLO 205 colon
[9] = system: DU-145 prostate
[10] = system: EKVX NSCLC
[11] = system: HCC-2998 colon
[12] = system: HCT-15 colon
[13] = system: HL-60(TB) leukemia
[14] = system: HOP-62 NSCLC
[15] = system: HOP-92 NSCLC
[16] = system: HS 578T breast
[17] = system: HT29 colon
[18] = system: IGROV1 ovarian
[19] = system: K-562 leukemia
[20] = system: KM12 colon
[21] = system: LOX IMVI melanoma
[22] = system: M14 melanoma
[23] = system: MALME-3M melanoma
[24] = system: MCF7 breast
[25] = system: MDA-MB-231 breast
[26] = system: MDA-MB-435 melanoma
[27] = system: MDA-MB-468 breast
[28] = system: MOLT-4 leukemia
[29] = system: NCI-H226 lung
[30] = system: NCI-H23 lung
[31] = system: NCI-H322M lung
[32] = system: NCI-H460 NSCLC
[33] = system: NCI-H522 lung
[34] = system: NCI/ADR-RES ovarian
[35] = system: OVCAR-3 ovarian
[36] = system: OVCAR-4 ovarian
[37] = system: OVCAR-5 ovarian
[38] = system: OVCAR-8 ovarian
[39] = system: PC-3 prostate
[40] = system: RPMI-8226 leukemia
[41] = system: RXF 393 renal
[42] = system: SF-268 CNS
[43] = system: SF-295 CNS
[44] = system: SF-539 CNS
[45] = system: SK-MEL-28 melanoma
[46] = system: SK-MEL-5 melanoma
[47] = system: SK-OV-3 ovarian
[48] = system: SN12C renal
[49] = system: SNB-19 CNS
[50] = system: SNB-75 CNS
[51] = system: SR leukemia
[52] = system: SW-620 colon
[53] = system: TK-10 renal
[54] = system: UACC-257 melanoma
[55] = system: UACC-62 melanoma
[56] = system: UO-31 renal

C[C@@H]1CCc2ncc(F)cc2[C@H]2CCCN2c2ccn3ncc(c3n2)C(=O)N1
92 µM: TGI [27]
20.4 µM: TGI [28]
96.2 µM: TGI [36]
49 µM: TGI [19]
> 100 µM: TGI [1] | TGI [2] | TGI [3] | TGI [4] | TGI [5] | TGI [6] | TGI [7] | TGI [8] | TGI [9] | TGI [10] | TGI [11] | TGI [12] | TGI [13] | TGI [14] | TGI [15] | TGI [16] | TGI [17] | TGI [18] | TGI [20] | TGI [21] | TGI [22] | TGI [23] | TGI [24] | TGI [25] | TGI [26] | TGI [29] | TGI [30] | TGI [31] | TGI [32] | TGI [33] | TGI [34] | TGI [35] | TGI [37] | TGI [38] | TGI [39] | TGI [40] | TGI [41] | TGI [42] | TGI [43] | TGI [44] | TGI [45] | TGI [46] | TGI [47] | TGI [48] | TGI [49] | TGI [50] | TGI [52] | TGI [53] | TGI [54] | TGI [55] | TGI [56]
inactive: GI50 [1] 23.6 µM | GI50 [2] 12.3 µM | GI50 [3] 61.9 µM | GI50 [4] 28 µM | GI50 [5] 76.3 µM | GI50 [6] 56.1 µM | GI50 [7] 8.73 µM | GI50 [8] 64.9 µM | GI50 [9] > 100 µM | GI50 [10] > 100 µM | GI50 [11] > 100 µM | GI50 [12] > 100 µM | GI50 [13] 63.1 µM | GI50 [14] 63.4 µM | GI50 [15] 14.6 µM | GI50 [16] 7.78 µM | GI50 [17] 75.5 µM | GI50 [18] 30.9 µM | GI50 [19] 7.4 µM | GI50 [21] > 100 µM | GI50 [22] 28.8 µM | GI50 [23] 4.11 µM | GI50 [24] 18.5 µM | GI50 [25] 18.1 µM | GI50 [26] 57.2 µM | GI50 [27] 17 µM | GI50 [28] 5.07 µM | GI50 [29] 5.37 µM | GI50 [30] 93.8 µM | GI50 [31] > 100 µM | GI50 [32] > 100 µM | GI50 [33] 16.2 µM | GI50 [34] > 100 µM | GI50 [35] 48.4 µM | GI50 [36] 10.3 µM | GI50 [37] 32.6 µM | GI50 [38] > 100 µM | GI50 [39] > 100 µM | GI50 [40] 2.36 µM | GI50 [41] 3.44 µM | GI50 [42] 94.1 µM | GI50 [43] 30.1 µM | GI50 [44] 82.1 µM | GI50 [45] 70.2 µM | GI50 [46] > 100 µM | GI50 [47] 65 µM | GI50 [48] 20.8 µM | GI50 [49] > 100 µM | GI50 [50] 25.4 µM | GI50 [51] 1.63 µM | GI50 [52] > 100 µM | GI50 [53] > 100 µM | GI50 [54] 63.3 µM | GI50 [55] 97.9 µM | GI50 [56] > 100 µM
3.2 µM: TGI [51]
